Experimental data published in US5750504A, “Antimicrobial proteins” (Zeneca Agrochemicals, priority 1996, dated 1998).

Legend:
Alternaria longipes = experiment: Antifungal activity assay (microspectrophotometry); format: cell-based; conditions: strain CBS620.83, host Nicotiana, inoculum Sp, period of incubation in AFP-solution 70
Description: (§1) Antifungal activity was measured by microspectrophotometry as previously described (Broekaert, 1990, FEMS Microbiol Lett, 69:55-60). Routinely, tests were performed with 20 μl of a (filter-sterilized) test solution and 80 μl of a suspension of fungal spores (2×10^4 spores/ml) in half strength potato dextrose broth (1/2 PDB). […] Control microcultures contained 20 μl of sterile distilled water and 80 μl of the fungal spore suspension.
(§2) Unless otherwise stated the test organism was Fusarium culmorum (strain IMI 180420) and incubation was done at 25° C. for 48 hours. Percent growth inhibition is defined as 100 times the ratio of the corrected absorbance of the control microculture minus the corrected absorbance of the test microculture over the corrected absorbance at 595 nm of the control microculture. The corrected absorbance values equal the absorbance at 595 nm of the culture measured after 48 hours minus the absorbance at 595 nm measured after 30 min.
(§3) The antifungal potency of the purified proteins was assessed on different plant pathogenic fungi, using the assay described in Example 1. Growth of fungi, collection and harvest of fungal spores and preparation of mycelial fragments were done as previously described (Broekaert et al, 1990, FEMS Microbiol Lett, 69:55-60). Serial dilutions of the antifungal proteins were applied to the fungi, either using growth medium SMF- (the synthetic growth medium of Example 1), medium SMF+ (medium SMF- supplemented with 1 mM CaCl2 and 50 mM KCl), growth medium 1/2 PDB- (half strength potato dextrose broth as in Example 1) or growth medium 1/2 PDB+ (medium 1/2 PDB- supplemented with 1 mM CaCl2 and 50 mM Kcl). The percent growth inhibition was measured by microspectrophotometry. […]
(§4) The abbreviations used are: IC50 =concentration required for 50% growth inhibition determined as described in Example 1; ND=not determined; Sp=spores; PrSp=spores pregerminated in the medium for 24 hours; MF=mycelial fragments preincubated for 48 hours in the medium prior to addition of the proteins; BHR=broad host range; SF=saprophytic fungus; SMF-=synthetic growth medium as described in Example 1; SMF+=SMF- supplemented with 1 mM CaCl2 and 50 mM KCl; 1/2PDB-=half strength potato dextrose broth as described in Example 1; 1/2PDB+=1/2PDB- supplemented with 1 mM CaCl2 and 50 mM KCl.

Cercospora beticola = experiment: Antifungal activity assay (microspectrophotometry); format: cell-based; conditions: strain SES; host Beta; medium 1/2PDB+; inoculum PrSp; period of incubation in AFP-solution
Description: as §1, §2, §3, §4

[1] = system: crude α-amylase extract from guts of adult cockroaches; experiment: Inhibition of α-amylase; format: biochemical, Blatta orientalis; conditions: cockroach gut enzyme; rates as high as 200 μg/ml
Description: (§5) A crude α-amylase extract was prepared from dissected guts of adult cockroaches (Blatta orientalis) by homogenising in 20 mM Tris/HCl, pH 7.5, 10 mM CaCl2 and removal of cell-debris by centrifugation. Human and porcine α-amylases were purchased from Sigma. Type 1-α-amylaseinhibitor from wheat (purchased from Sigma) was used as a positive control. Amylase extracts were incubated with peptides for 20 min at 30° C. prior to addition of starch and enzyme activity was detected using the method of Bernfeld (1955, Methods Enzymol, Colwick and Kaplan eds, vol 1:149-158).
(§6) The α-amylase inhibition activities of Hs-AFP1 and Ah-AMP1 were compared on α-amylases from the three sources to that of the Sorgum bicolor homologue SIα3, previously reported to inhibit insect gut α-amylases (Bloch and Richardson, 1991, FEBS Lett, 279:101-104). SIα3 inhibited the activity of the enzymes from insect gut and human saliva to greater than 70% at rates as low as 5 μg/ml.

[2] = molecular target: T1, Human α-amylase (human saliva) (Homo sapiens, UniProt P0DUB6); experiment: Inhibition of α-amylase; format: biochemical; conditions: human enzyme; rates as high as 200 μg/ml
T1 construct: the enzymes from insect gut and human saliva; purchased Sigma; host or cells: human saliva
T1 sequence (P0DUB6 16-511): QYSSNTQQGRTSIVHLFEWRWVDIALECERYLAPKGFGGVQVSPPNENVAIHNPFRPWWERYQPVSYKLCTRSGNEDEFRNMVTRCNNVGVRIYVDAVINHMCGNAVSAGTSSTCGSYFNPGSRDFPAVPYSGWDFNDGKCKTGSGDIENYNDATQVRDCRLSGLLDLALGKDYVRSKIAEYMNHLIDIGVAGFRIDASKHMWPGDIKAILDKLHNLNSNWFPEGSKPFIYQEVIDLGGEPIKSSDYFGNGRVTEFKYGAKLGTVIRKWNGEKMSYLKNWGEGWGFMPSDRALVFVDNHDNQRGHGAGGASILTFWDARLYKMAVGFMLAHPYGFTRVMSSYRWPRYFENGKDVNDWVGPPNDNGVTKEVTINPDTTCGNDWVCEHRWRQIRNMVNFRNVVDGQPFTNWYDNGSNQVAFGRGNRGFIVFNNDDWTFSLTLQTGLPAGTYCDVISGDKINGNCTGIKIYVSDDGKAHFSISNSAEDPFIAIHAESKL
Description: as §5, §6

[3] = molecular target: T2, porcine α-amylase (porcine pancreas) (Sus scrofa, UniProt P00690); experiment: Inhibition of α-amylase; format: biochemical; conditions: porcine enzyme; rates as high as 200 μg/ml
T2 construct: the enzyme from porcine pancreas; purchased Sigma; host or cells: porcine pancreas
T2 sequence (P00690 16-511): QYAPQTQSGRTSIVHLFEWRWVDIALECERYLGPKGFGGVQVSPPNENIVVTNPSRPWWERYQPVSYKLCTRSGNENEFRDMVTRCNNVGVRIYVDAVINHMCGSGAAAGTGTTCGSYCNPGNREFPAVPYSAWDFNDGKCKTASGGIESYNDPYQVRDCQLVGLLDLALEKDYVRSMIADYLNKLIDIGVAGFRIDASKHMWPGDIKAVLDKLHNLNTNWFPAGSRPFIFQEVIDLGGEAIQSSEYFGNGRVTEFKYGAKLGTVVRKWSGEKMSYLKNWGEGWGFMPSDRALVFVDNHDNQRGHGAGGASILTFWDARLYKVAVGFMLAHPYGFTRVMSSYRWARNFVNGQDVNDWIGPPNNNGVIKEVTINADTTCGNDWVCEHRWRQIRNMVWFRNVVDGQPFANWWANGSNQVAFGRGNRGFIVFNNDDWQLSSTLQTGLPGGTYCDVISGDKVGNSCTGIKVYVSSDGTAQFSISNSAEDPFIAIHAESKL
Description: as §5, §6

[4] = system: hyphae of Fusarium culmorum; experiment: Morphological effect on hyphae; format: cell-based

Substance | IC50 (Alternaria longipes; medium SMF+) [µg/mL] | IC50 (Alternaria longipes; medium SMF-) [µg/mL] | IC50 (Cercospora beticola) [µg/mL] | inhibition of α-amylase activity [1] | inhibition of α-amylase activity [2] | inhibition of α-amylase activity [3] | hyper-branching of hyphae of Fusarium culmorum [4]
Ah-AMP1: Aesculus hippocastanum antimicrobial protein 1; 5 kDa polypeptide purified from seeds, 50 amino acids, SEQ ID NO 2 (LCNERPSQTWSGNCGNTAHCDKQCQDWEKASHGACHKRENHWKCFCYFNC) | 100 | 25 | 1.5 | no inhibition | no inhibition | no inhibition | does not cause hyper-branching
Hs-AFP1: Heuchera sanquinea antifungal protein 1; 5 kDa polypeptide purified from seeds, 54 amino acids, SEQ ID NO 1 (DGVKLCDVPSGTWSGHCGSSSKCSQQCKDREHFAYGGACHYQFPSVKCFCKRQC) | 6 | 0.75 | 1.5 | no inhibition | no inhibition | no inhibition | causes hyper-branching
